Test results as given in patent publication US20100204113A1, “USE OF STRESSCOPIN-RELATED PEPTIDE AS A THERAPEUTIC AGENT” (priority 2007, published 2010).
No end group written: not given here.

Tested on: drug-resistant Mycobacterium tuberculosis
Details: peptide 10 micrograms per ml, seven days

In the case of “HPGSRIVLSLDVPIGLLQILLEQARARAAREQATTNARILARV-NH2 [Stresscopin-related peptide]”, the “% inhibition” value is reported as 0.0%.
